Source: patent US20150315218A1, “SALTS OF PRODRUGS OF PIPERAZINE AND SUBSTITUTED PIPERIDINE ANTIVIRAL AGENTS” (Bristol-Myers Squibb Company, priority 2004, published 2015)
Read-outs that look alike come from different tables or passages of the source. Marks after values point to notes of the source that are not given here.

Experiments:
[1] = IV and PO pharmacokinetic studies of prodrug salts (Iab, Ibb, Icb) in the rat, with historical parent data; assay type: in vivo, Sprague-Dawley rats; details: for Tmax: read-out: Tmax (hr), PO; for Cmax: read-out: Cmax (μM), PO
Procedure: (§1) All blood samples (0.3 mL) were colleted in microtainers containing K2EDTA (Becton Dickinson, Franklin Lakes, N.J.) and placed on chipped ice. After centrifugation, plasma was separated and stored at −20° C. until analysis. The mono-lysine salt of Iab (Form 3, Lot 1) was used for the pharmacokinetic studies. The dosing solutions of Iab were prepared in either sterile water (for IV administration in dogs and monkeys) or distilled water (for all other dose administration).
Male Sprague-Dawley rats (300-350 g, Hilltop Lab Animals, Inc., Scottsdale, Pa.) with cannulas implanted in the jugular vein were used. The rats were fasted overnight in the PO pharmacokinetic studies. Blood samples were collected from the jugular vein.
In the IV study, Iab was delivered at 1.4 mg/kg (free acid, or 1.1 mg/kg of IVa equivalent) as a bolus over 0.5 min (n=3).
In the PO study, Iab was administered at 7.9 mg/kg (free acid, or 6.3 mg/kg of IVa equivalent) by oral gavage (n=3). The concentration of the dosing solution was 4.0 mg/mL, and the dosing volume was 2 mL/kg.
The pharmacokinetic parameters of Iab and IVa were calculated by Non-Compartmental Analysis using the […]™ software program (version 4.0.2, InnaPhase Co., Philadelphia, Pa.). The Cmax and Tmax values were recorded directly from experimental observations. The AUC0-n and AUCtot values were calculated using the mixed log-linear trapezoidal summations. The total body clearance (Cl), mean residence time (MRT), and the steady state volume of distribution (Vss) were also calculated after intravenous administration. The absolute oral bioavailability (expressed as %) was estimated by taking the ratio of dose-normalized AUC values after oral doses to those after intravenous doses.
as §1, with “Ibb” for “Iab”, “3)” for “3, Lot 1)”
(§2) The Cmax and Tmax values were recorded directly from experimental observations. The AUC0-n and AUCtot values were calculated using the mixed log-linear trapezoidal summations. The total body clearance (Cl), mean residence time (MRT), and the steady state volume of distribution (Vss) were also calculated after intravenous administration. The absolute oral bioavailability (expressed as %) was estimated by taking the ratio of dose-normalized AUC values after oral doses to those after intravenous doses.
In the IV study, Icb was delivered at 1.4 mg/kg (free acid, or 1.1 mg/kg of IVe equivalent) as a bolus over 0.5 min (n=3).
In the PO study, Icb was administered at 6.9 mg/kg (free acid, or 5.6 mg/kg of IVe equivalent) by oral gavage (n=3).
as §2

[2] = IV and PO pharmacokinetic studies of prodrug salts (Iab, Ibb, Icb) in the dog, with historical parent data; assay type: in vivo, beagle dogs; details: for Tmax: read-out: Tmax (hr), PO; for concentration at 24 hr: read-out: C-24 hr (μM), PO; for Cmax: read-out: Cmax (μM), PO
Procedure: The IV and PO studies of Iab were conducted in a crossover fashion in three male beagle dogs (11±1.1 kg, Marshall Farms USA Inc., North Rose, N.Y.). There was a two-week washout period between the IV and PO studies.
(§3) In the IV study, Iab was infused via the cephalic vein at 1.2 mg/kg (free acid, or 0.95 mg/kg of IVa equivalent) over 5 min at a constant rate of 0.1 mL/kg/min. The concentration of the dosing solution was 2.4 mg/mL, and the dosing volume was 0.5 mL/kg. Serial blood samples were collected from the femoral artery before dosing and at 5, 10, 15, 30, 45 min, 1, 2, 4, 6, 8 and 24 hr after dosing.
In the PO study, the dogs were fasted overnight before dosing. Iab was administered by oral gavage at 6.6 mg/kg (free acid, or 5.2 mg/kg of IVa equivalent). The concentration of the dosing solution was 13.2 mg/mL, and the dosing volume was 0.5 mL/kg. Serial blood samples were collected before dosing and at 15, 30, 45 min, 1, 2, 4, 6, 8 and 24 hr after dosing.
The IV and PO studies of Ibb were conducted in male beagle dogs (10±0.78 kg, Marshall Farms USA Inc., North Rose, N.Y.). Three dogs were used in each study. Of the three dogs, two same dogs were used for both IV and PO studies. There was a two-week washout period between the IV and PO studies.
The concentration of the dosing solution was 2.6 mg/mL, and the dosing volume was 0.5 mL/kg. Serial blood samples were collected from the femoral artery before dosing and at 5, 10, 15, 30, 45 min, 1, 2, 4, 6, 8 and 24 hr after dosing.
In the PO study, the dogs were fasted overnight before dosing. […] The concentration of the dosing solution was 7.0 mg/mL, and the dosing volume was 1 mL/kg. Serial blood samples were collected before dosing and at 15, 30, 45 min, 1, 2, 4, 6, 8 and 24 hr after dosing.
The IV and PO studies of Icb were conducted in a crossover fashion in three male beagle dogs (12±2.8 kg, Marshall Farms USA Inc., North Rose, N.Y.). There was a two-week washout period between the IV and PO studies.
as §3, with “Icb” for “Iab”, “1.3” for “1.2”, “1.0” for “0.95”, “IVe” for “IVa”, “2.6” for “2.4”
In the PO study, the dogs were fasted overnight before dosing. […] The concentration of the dosing solution was 12 mg/mL, and the dosing volume was 0.5 mL/kg. Serial blood samples were collected before dosing and at 15, 30, 45 min, 1, 2, 4, 6, 8 and 24 hr after dosing.

[3] = Stability of prodrug in fresh EDTA blood (rat); details: Rat EDTA blood
Procedure: The stability of Iab was studied in fresh blood and serum from rat, dog, monkey and human (n=2). The blood was collected in vacutainers containing K2EDTA (Becton Dickinson, Franklin Lakes, N.J.). The serum was collected in vacutainers containing no anticoagulant. Iab was incubated at a starting concentration of approximately 10 μM for 60-90 min at 37° C. Serial samples were taken at the pre-determined times. Aliquots of blood samples (200 μL) were first mixed with 100 μL of water followed by 400 μL of acetonitrile. The serum samples (50 μL) were added into microtainers containing K2EDTA (Becton Dickinson, Franklin Lakes, N.J.) followed by the addition of 100 μL of acetonitrile. The supernatant was analyzed for both Iab and IVa by LC/MS/MS. The stability of Ibb was studied in fresh blood and serum from rat, dog, monkey and human (n=2). The blood was collected in vacutainers containing K2EDTA (Becton Dickinson, Franklin Lakes, N.J.). The serum was collected in vacutainers containing no anticoagulant. Ibb was incubated at a starting concentration of approximately 15 μM for 90 min at 37° C. Serial samples were taken at the pre-determined times. Aliquots of blood samples (200 μL) were first mixed with 100 μL of water followed by 400 μL of acetonitrile. The serum samples (50 μL) were added into microtainers containing K2EDTA (Becton Dickinson, Franklin Lakes, N.J.) followed by the addition of 100 μL of acetonitrile. […] The stability of Icb was studied in fresh blood and serum from rat, dog, monkey and human (n=2). The blood was collected in vacutainers containing K2EDTA (Becton Dickinson, Franklin Lakes, N.J.). The serum was collected in vacutainers containing no anticoagulant. Icb was incubated at a starting concentration of approximately 10 μM for 90 min at 37° C. Serial samples were taken at the pre-determined times. Aliquots of blood samples (200 μL) were first mixed with 100 μL of water followed by 400 μL of acetonitrile. The serum samples (50 μL) were added into microtainers containing K2EDTA (Becton Dickinson, Franklin Lakes, N.J.) followed by the addition of 100 μL of acetonitrile.

[4] = oral prodrug vs historical parent
[5] = male, beagle, plasma, 6.6 mg/kg, after oral prodrug, analyte = label, ND = not detected
[6] = plasma, historical parent, PO 5 mg/kg

COc1ncc(OC)c2c(C(=O)C(=O)N3CCN(C(=O)c4ccccc4)CC3)c[nH]c12 [IVa, N-(benzoyl)-N′-[(4,7-dimethoxy-6-azaindol-3-yl)-oxoacetyl]piperazine]
AUC ([1]; Sprague-Dawley, plasma, historical parent, IV 1 mg/kg, read-out: AUCtot (μM·hr), IV): 3.3 ± 1.1 µM·h | MRT ([1]; Sprague-Dawley, plasma, historical parent, IV 1 mg/kg, read-out: MRT (hr), IV): 2.2 ± 1.5 h | Vd ([1]; Sprague-Dawley, plasma, historical parent, IV 1 mg/kg, read-out: Vdss (L/kg), IV): 1.5 ± 0.25 L/kg | half-life ([1]; Sprague-Dawley, plasma, historical parent, IV 1 mg/kg, read-out: t1/2 (hr), IV (converted)): 2.4 ± 0.32 h | Tmax ([1]; Sprague-Dawley, plasma, historical parent, PO 5 mg/kg): 2 h | half-life ([1]; Sprague-Dawley, plasma, historical parent, PO 5 mg/kg, read-out: t1/2 (hr), PO (converted)): 1.7 ± 0.92 h | CLtot (mL/min/kg), IV ([1]; historical parent, IV 1 mg/kg): 13 ± 4.0 mL/min/kg | AUCtot (μM·hr), PO ([1]; historical parent, PO 5 mg/kg): 15 ± 6.3 µM·h | Bioavailability (%) ([1]; historical parent, PO 5 mg/kg): 90% | Cmax ([1]; historical parent, PO 5 mg/kg): 4.5 ± 1.5 µM | AUC ([1]; male, Sprague-Dawley, plasma, 7.9 mg/kg, after oral prodrug, analyte = label, ND = not detected (<5 nM), read-out: AUCtot (μM·hr), PO): 13 ± 1.4 µM·h | Cmax ([1]; male, Sprague-Dawley, plasma, 7.9 mg/kg, after oral prodrug, analyte = label, ND = not detected (<5 nM)): 3.9 ± 0.98 µM | half-life ([1]; male, Sprague-Dawley, plasma, 7.9 mg/kg, parent after oral prodrug, read-out: t1/2 (hr), PO (converted)): 1.5 ± 0.24 h | AUC ([1]; male, Sprague-Dawley, plasma, after IV prodrug (~1 mg/kg parent equivalent), analyte = label, read-out: AUCtot (μM·hr), IV): 5.4 ± 0.93 µM·h | half-life ([1]; male, Sprague-Dawley, plasma, after IV prodrug, analyte = label, read-out: t1/2 (hr), IV (converted)): 4.4 ± 1.9 h | bioavailability ([1]; male, Sprague-Dawley, plasma, oral prodrug, calculated from historical IV data of parent, read-out: Bioavailability (%) of parent from prodrug): 62% | Tmax ([1]; male, Sprague-Dawley, plasma, parent after oral prodrug (~5-6 mg/kg parent equivalent)): 0.83 h | PO AUC Ratio of parent [1, 4]: 0.69* | bioavailability ([1]; plasma, po, range over rats, dogs and monkeys, read-out: oral bioavailabilities of parent after administration of prodrug): 62 to 94% | IV AUC Ratio of parent (formed from prodrug vs historical parent study) [2]: 0.80 | Bioavailability (%) ([2]; beagle, in vivo, po, 5 mg/kg): 57% | Tmax ([2]; beagle, plasma, historical parent, PO 5 mg/kg): 2.9 h | AUC ([2]; male, beagle, plasma, 6.6 mg/kg, after oral prodrug, analyte = label, ND = not detected, read-out: AUCtot (μM · hr), PO): 83 ± 16 µM·h | concentration at 24 hr [2, 5]: 0.26 ± 0.12 µM | Cmax [2, 5]: 14 ± 1.3 µM | half-life ([2]; male, beagle, plasma, 6.6 mg/kg, parent after oral prodrug, read-out: t1/2 (hr), PO (converted)): 4.1 ± 0.52 h | AUC ([2]; male, beagle, plasma, after IV prodrug (~1 mg/kg parent equivalent), analyte = label, read-out: AUCtot (μM · hr), IV): 13 ± 2.2 µM·h | half-life ([2]; male, beagle, plasma, after IV prodrug, analyte = label, read-out: t1/2 (hr), IV (converted)): 5.2 ± 1 h | bioavailability ([2]; male, beagle, plasma, oral prodrug, read-out: Bioavailability (%) of parent from prodrug): 94% | Tmax ([2]; male, beagle, plasma, parent after oral prodrug (~5 mg/kg parent equivalent)): 0.25 h | PO AUC Ratio of parent [2, 4]: 1.7 | AUC ([2]; plasma, historical parent, IV 1 mg/kg, read-out: AUCtot (μM · hr), IV): 17 ± 3.5 µM·h | clearance ([2]; plasma, historical parent, IV 1 mg/kg, read-out: CLtot (mL/min/kg), IV): 2.4 ± 0.43 mL/min/kg | MRT ([2]; plasma, historical parent, IV 1 mg/kg, read-out: MRT (hr), IV): 3.3 ± 0.71 h | Vd ([2]; plasma, historical parent, IV 1 mg/kg, read-out: Vdss (L/kg), IV): 0.45 ± 0.083 L/kg | half-life ([2]; plasma, historical parent, IV 1 mg/kg, read-out: t1/2 (hr), IV (converted)): 2.6 ± 1.2 h | AUC ([2]; plasma, historical parent, PO 5 mg/kg, read-out: AUCtot (μM · hr), PO): 47 ± 7.2 µM·h | concentration at 24 hr [2, 6]: 0.15 ± 0.093 µM | Cmax [2, 6]: 6.5 ± 1.2 µM | half-life ([2]; plasma, historical parent, PO 5 mg/kg, read-out: t1/2 (hr), PO (converted)): 3.8 ± 0.81 h | % IVa Formed (of starting concentration of Iab) ([3]; 0 min): 0.24% | Iab / IVa Formed ([3]; 37°C, 0 min): 0.019 µM | % IVa Formed (of starting concentration of Iab) ([3]; 20 min): 0.70% | Iab / IVa Formed ([3]; 20 min): 0.056 µM | % IVa Formed (of starting concentration of Iab) ([3]; 40 min): 0.90% | Iab / IVa Formed ([3]; 40 min): 0.072 µM | % IVa Formed (of starting concentration of Iab) ([3]; 60 min): 1.2% | Iab / IVa Formed ([3]; 60 min): 0.093 µM
